According to US12037411B2, “Antibodies, and bispecific antigen-binding molecules that bind HER2 and/or APLP2, conjugates, and uses thereof” (Regeneron Pharmaceuticals, Inc., priority 2018, dated 2024):

Assays:
HER2 in T47D cells = assay: HER2 turnover after cycloheximide treatment (western blot); format: cell-based, human; details: for Normalized HER2 expression: 50 ug/ml
Protocol: (§1) Additionally, the degradation rates of APLP2 and HER2 was tested on T47D cells. For the assay, T47D cells were plate at 10^6 cells/well in 6 well plates (Corning #3516). The cells were allowed to grow overnight at 37° C. in 5% CO2 in media consisting of RPMI 1640+10% FBS+1 mM sodium pyruvate+10 mM HEPES+10 ug/mL Insulin+5 mL Penicillin/Streptomycin/Glutamine. The following day, cells were treated with 50 ug/ml cycloheximide (Sigma #C4859-1ML) for 0, 0.5, 1.5, 2.5, 3.5, 4.5 and 5.5 hours. After the incubation, cells were washed once with 1 ml of DPBS/CM, and subsequently placed on ice and then the DPBS/CM was replaced with 800 uL of lysis buffer [1×RIPA (Boston Bioproducts, Cat #BP-116)+Protease inhibitor (Thermo Fisher, 1861280), cells were scraped and lysates were transferred to 1.5 ml Eppendorf tubes. Afterwards, the samples were sonicated with 25 pulses, 1 sec each at 50% power. Afterwards, the samples were frozen at −20° C. The samples were later thawed and 52 ul of each sample was mixed with 20 ul 4× Laemmli (Invitrogen, NP0007)+8 uL 10× Reducing agent (Invitrogen, Cat #NP0009)]. Samples were boiled at 95° C. for 10 minutes, centrifuged at 14000 RPM for 10 minutes at room temperature. 40 uL of each sample was loaded into three Wedged 4-20% TRIS-Glycine gels (Invitrogen, XPO4125BOX) and ran at 150V. The gels were then transferred into two PVDF membranes (ThermoFisher, IB24001) with iBlot2 dry blotting system (ThermoFisher, 1321001). The membranes were then blocked with 5% milk (BioRad, Cat #170-6404) in TBS for 3 hours at room temperature. Primary antibodies, rabbit-anti-HER2 antibody (Dako, Cat #A048529) or rabbit-anti-APLP2 antibody (abcam, Cat #ab140624) in 2.5% Milk+0.1% Tween (Sigma, Cat #P8074) in TRIS buffered saline (TBS; ThermoFisher, Cat #28376), were then added to the membranes and incubated at 4° C. overnight. The membranes were then washed 3 times with TBS for 5 minutes at room temperature. After, anti-rabbit-HRP antibodies (Promega, #W4011) and anti-actin-HRP antibody (Santa Cruz, Cat #sc-47779) in 2.5% Milk+0.1% Tween in TBS were added to the membranes and incubated at room temperature for 1 hour. The membranes were then washed 2 times with TBS+0.1% Tween at room temperature for 5 minutes, and then washed 2 more times with TBS room temperature for 5 minutes. The blot was then developed with ECL Detection Reagent (GE healthcare, Cat #RPN2106) and imaged with Azure C300 imager. Band quantification (mean fluorescence intensity minus background) was performed using ImageJ. Table 11 summarizes HER2, APLP, or T47D cells after cycloheximide (CHX) treatment normalized to cells having no CHX contact.

APLP2 in T47D cells = assay: APLP2 turnover after cycloheximide treatment (western blot); format: cell-based, human; details: for Normalized APLP2 expression: 50 ug/ml
Protocol: as §1

C[C@@H]1C[C@@H]([C@H](O)CC2CC(=O)NC(=O)C2)C(=O)[C@@H](C)C1 [CHX, cycloheximide]
Normalized HER2 expression (HER2 in T47D cells; CHX treatment 0.5 hours): 57%
Normalized HER2 expression (HER2 in T47D cells; CHX treatment 1.5 hours): 78%
Normalized HER2 expression (HER2 in T47D cells; CHX treatment 2.5 hours): 68%
Normalized HER2 expression (HER2 in T47D cells; CHX treatment 3.5 hours): 64%
Normalized HER2 expression (HER2 in T47D cells; CHX treatment 4.5 hours): 88%
Normalized HER2 expression (HER2 in T47D cells; CHX treatment 5.5 hours): 78%
HER2 degradation (HER2 in T47D cells; after 5.5 hours): 22%
Normalized APLP2 expression (APLP2 in T47D cells; CHX treatment 0.5 hours): 41%
Normalized APLP2 expression (APLP2 in T47D cells; CHX treatment 1.5 hours): 22%
Normalized APLP2 expression (APLP2 in T47D cells; CHX treatment 2.5 hours): 9%
Normalized APLP2 expression (APLP2 in T47D cells; CHX treatment 3.5 hours): 7%
Normalized APLP2 expression (APLP2 in T47D cells; CHX treatment 4.5 hours): 8%
Normalized APLP2 expression (APLP2 in T47D cells; CHX treatment 5.5 hours): 6%
APLP2 degradation (APLP2 in T47D cells; after 5.5 hours): 94%
APLP2 degraded (APLP2 in T47D cells; in 1.5 hours): Eighty-eight
